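In this assay, cells in 96-well plates receive the compound at five concentrations for 48 hours. Endpoints are linearly interpolated between the surrounding concentrations. At the GI50, growth is halved.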 The source made the active and inactive calls. Rule as the data show it: active = GI50 up to about 1.1 µM and inactive = higher.
Key:
Test in all cases: NCI-60 cell line screen, 48 h
SNB-75 = tested on: SNB-75
NCI-H23 = tested on: NCI-H23
U-251 = tested on: U-251
MOLT-4 = tested on: MOLT-4
NCI-H226 = tested on: NCI-H226
BT-549 = tested on: BT-549
LOX IMVI = tested on: LOX IMVI
HOP-92 = tested on: HOP-92
SN12C = tested on: SN12C
786-0 = tested on: 786-0
A549 = tested on: A549
A498 = tested on: A498
OVCAR-3 = tested on: OVCAR-3
Hs-578T = tested on: Hs-578T
EKVX = tested on: EKVX
MDA-N = tested on: MDA-N
MCF7 = tested on: MCF7
SF-268 = tested on: SF-268
SK-MEL-28 = tested on: SK-MEL-28
PC-3 = tested on: PC-3
COLO 205 = tested on: COLO 205
CCRF-CEM = tested on: CCRF-CEM
TK-10 = tested on: TK-10
K562 = tested on: K562
SW-620 = tested on: SW-620
HOP-62 = tested on: HOP-62
SF-295 = tested on: SF-295
OVCAR-5 = tested on: OVCAR-5
OVCAR-8 = tested on: OVCAR-8
HCC 2998 = tested on: HCC 2998
HCT-15 = tested on: HCT-15
KM12 = tested on: KM12
OVCAR-4 = tested on: OVCAR-4
SK-MEL-5 = tested on: SK-MEL-5
SR = tested on: SR
IGROV-1 = tested on: IGROV-1
MDA-MB-435 = tested on: MDA-MB-435
HT-29 = tested on: HT-29
T47D = tested on: T47D
HL-60 = tested on: HL-60
ACHN = tested on: ACHN
MDA-MB-231 = tested on: MDA-MB-231
NCI/ADR-RES = tested on: NCI/ADR-RES
DU-145 = tested on: DU-145
RXF 393 = tested on: RXF 393
Malme-3M = tested on: Malme-3M
CAKI-1 = tested on: CAKI-1
SF-539 = tested on: SF-539
SK-MEL-2 = tested on: SK-MEL-2
UACC-62 = tested on: UACC-62
RPMI-8226 = tested on: RPMI-8226
UACC-257 = tested on: UACC-257
M14 = tested on: M14
NCI-H460 = tested on: NCI-H460
UO-31 = tested on: UO-31
NCI-H522 = tested on: NCI-H522
HCT-116 = tested on: HCT-116
SNB-19 = tested on: SNB-19
SK-OV-3 = tested on: SK-OV-3

CC(C)C[C@H](NC(=O)[C@H](CCc1ccccc1)NC(=O)c1ccc2ccccc2n1)B(O)O
GI50 (SNB-75): 0.0302 µM (active) | GI50 (NCI-H23): 0.0367 µM (active) | GI50 (U-251): 0.178 µM (active) | GI50 (MOLT-4): < 0.01 µM (active) | GI50 (NCI-H226): < 0.01 µM (active) | GI50 (BT-549): < 0.01 µM (active) | GI50 (LOX IMVI): 0.0144 µM (active) | GI50 (HOP-92): 0.0329 µM (active) | GI50 (SN12C): < 0.01 µM (active) | GI50 (786-0): < 0.0225 µM (active) | GI50 (A549): 0.233 µM (active) | GI50 (A498): 0.0471 µM (active) | GI50 (OVCAR-3): < 0.01 µM (active) | GI50 (Hs-578T): 0.0245 µM (active) | GI50 (EKVX): 0.264 µM (active) | GI50 (MDA-N): < 0.01 µM (active) | GI50 (MCF7): < 0.01 µM (active) | GI50 (SF-268): 0.0571 µM (active) | GI50 (SK-MEL-28): < 0.01 µM (active) | GI50 (PC-3): 0.0731 µM (active) | GI50 (COLO 205): 0.043 µM (active) | GI50 (CCRF-CEM): < 0.01 µM (active) | GI50 (TK-10): < 0.01 µM (active) | GI50 (K562): 0.0439 µM (active) | GI50 (SW-620): < 0.01 µM (active) | GI50 (HOP-62): 0.176 µM (active) | GI50 (SF-295): 0.053 µM (active) | GI50 (OVCAR-5): < 0.0268 µM (active) | GI50 (OVCAR-8): 0.163 µM (active) | GI50 (HCC 2998): 0.0292 µM (active) | GI50 (HCT-15): 0.0883 µM | GI50 (KM12): 0.0644 µM (active) | GI50 (OVCAR-4): 0.185 µM (active) | GI50 (SK-MEL-5): < 0.0136 µM (active) | GI50 (SR): < 0.0158 µM (active) | GI50 (IGROV-1): 0.0705 µM (active) | GI50 (MDA-MB-435): < 0.01 µM (active) | GI50 (HT-29): < 0.0113 µM (active) | GI50 (T47D): < 0.01 µM (active) | GI50 (HL-60): < 0.01 µM (active) | GI50 (ACHN): < 0.01 µM (active) | GI50 (MDA-MB-231): 0.134 µM (active) | GI50 (NCI/ADR-RES): 0.706 µM (active) | GI50 (DU-145): 0.0752 µM (active) | GI50 (RXF 393): < 0.01 µM (active) | GI50 (Malme-3M): < 0.01 µM (active) | GI50 (CAKI-1): < 0.0194 µM (active) | GI50 (SF-539): < 0.01 µM (active) | GI50 (SK-MEL-2): < 0.01 µM (active) | GI50 (UACC-62): 0.0973 µM (active) | GI50 (RPMI-8226): < 0.01 µM (active) | GI50 (UACC-257): < 0.0156 µM (active) | GI50 (M14): < 0.0109 µM (active) | GI50 (NCI-H460): 0.394 µM (active) | GI50 (UO-31): 0.0845 µM (active) | GI50 (NCI-H522): < 0.0128 µM (active) | GI50 (HCT-116): < 0.0122 µM (active)

COn1cc(CO)c2ccccc21
GI50 (SNB-75): > 100 µM (inactive) | GI50 (NCI-H23): > 100 µM (inactive) | GI50 (U-251): 69.7 µM (inactive) | GI50 (MOLT-4): 28.8 µM (inactive) | GI50 (NCI-H226): 1.57 µM (inactive) | GI50 (BT-549): > 100 µM (inactive) | GI50 (LOX IMVI): > 100 µM (inactive) | GI50 (HOP-92): > 61.2 µM (inactive) | GI50 (SN12C): > 84.7 µM (inactive) | GI50 (786-0): > 86.9 µM (inactive) | GI50 (A549): > 62.1 µM (inactive) | GI50 (A498): 1.82 µM (inactive) | GI50 (OVCAR-3): 40.8 µM (inactive) | GI50 (Hs-578T): > 68.7 µM (inactive) | GI50 (EKVX): > 83.2 µM (inactive) | GI50 (MDA-N): 97.5 µM (inactive) | GI50 (MCF7): 52.7 µM (inactive) | GI50 (SF-268): > 88.7 µM (inactive) | GI50 (SK-MEL-28): > 100 µM (inactive) | GI50 (PC-3): > 75.2 µM (inactive) | GI50 (COLO 205): 51.4 µM (inactive) | GI50 (CCRF-CEM): 34.7 µM (inactive) | GI50 (TK-10): 5.96 µM (inactive) | GI50 (K562): 31.2 µM (inactive) | GI50 (SW-620): 27.5 µM (inactive) | GI50 (HOP-62): > 100 µM (inactive) | GI50 (SF-295): > 100 µM (inactive) | GI50 (OVCAR-5): 7.96 µM (inactive) | GI50 (OVCAR-8): > 100 µM (inactive) | GI50 (HCC 2998): 32.8 µM (inactive) | GI50 (HCT-15): > 88.7 µM | GI50 (KM12): > 100 µM (inactive) | GI50 (OVCAR-4): 34 µM (inactive) | GI50 (SK-MEL-5): 64.1 µM (inactive) | GI50 (SR): 31.8 µM (inactive) | GI50 (IGROV-1): 22 µM (inactive) | GI50 (MDA-MB-435): > 100 µM (inactive) | GI50 (HT-29): > 58.5 µM (inactive) | GI50 (T47D): 30.8 µM (inactive) | GI50 (HL-60): 31.3 µM (inactive) | GI50 (ACHN): 61.4 µM (inactive) | GI50 (MDA-MB-231): > 100 µM (inactive) | GI50 (NCI/ADR-RES): > 90.8 µM (inactive) | GI50 (DU-145): 53.1 µM (inactive) | GI50 (SNB-19): > 100 µM (inactive) | GI50 (RXF 393): 21.5 µM (inactive) | GI50 (Malme-3M): 53 µM (inactive) | GI50 (CAKI-1): 3.37 µM (inactive) | GI50 (SF-539): > 100 µM (inactive) | GI50 (SK-MEL-2): > 54.3 µM (inactive) | GI50 (UACC-62): 43.3 µM (inactive) | GI50 (RPMI-8226): 66.5 µM (inactive) | GI50 (SK-OV-3): > 100 µM (inactive) | GI50 (UACC-257): 25.2 µM (inactive) | GI50 (M14): > 86.9 µM (inactive) | GI50 (NCI-H460): > 100 µM (inactive) | GI50 (UO-31): 33.1 µM (inactive) | GI50 (NCI-H522): 21.5 µM (inactive) | GI50 (HCT-116): 45.3 µM (inactive)

Nc1nc(Cl)cc(NCC2(CO)CC(O)C2)n1 (centres undefined)
GI50 (SNB-75): > 100 µM (inactive) | GI50 (NCI-H23): > 100 µM (inactive) | GI50 (U-251): > 100 µM (inactive) | GI50 (MOLT-4): > 100 µM (inactive) | GI50 (NCI-H226): > 100 µM (inactive) | GI50 (BT-549): > 100 µM (inactive) | GI50 (LOX IMVI): > 100 µM (inactive) | GI50 (HOP-92): > 100 µM (inactive) | GI50 (SN12C): > 100 µM (inactive) | GI50 (786-0): > 100 µM (inactive) | GI50 (A549): > 100 µM (inactive) | GI50 (A498): > 100 µM (inactive) | GI50 (OVCAR-3): > 100 µM (inactive) | GI50 (Hs-578T): > 100 µM (inactive) | GI50 (EKVX): > 100 µM (inactive) | GI50 (MDA-N): > 100 µM (inactive) | GI50 (MCF7): > 100 µM (inactive) | GI50 (SF-268): > 100 µM (inactive) | GI50 (SK-MEL-28): > 100 µM (inactive) | GI50 (PC-3): > 100 µM (inactive) | GI50 (COLO 205): > 100 µM (inactive) | GI50 (CCRF-CEM): > 100 µM (inactive) | GI50 (TK-10): > 100 µM (inactive) | GI50 (K562): > 100 µM (inactive) | GI50 (SW-620): > 100 µM (inactive) | GI50 (HOP-62): > 100 µM (inactive) | GI50 (SF-295): > 100 µM (inactive) | GI50 (OVCAR-5): > 100 µM (inactive) | GI50 (OVCAR-8): > 100 µM (inactive) | GI50 (HCC 2998): > 100 µM (inactive) | GI50 (HCT-15): > 100 µM | GI50 (KM12): > 100 µM (inactive) | GI50 (OVCAR-4): > 100 µM (inactive) | GI50 (SK-MEL-5): > 100 µM (inactive) | GI50 (SR): > 100 µM (inactive) | GI50 (IGROV-1): > 100 µM (inactive) | GI50 (MDA-MB-435): > 100 µM (inactive) | GI50 (HT-29): > 100 µM (inactive) | GI50 (T47D): > 100 µM (inactive) | GI50 (HL-60): > 100 µM (inactive) | GI50 (ACHN): > 100 µM (inactive) | GI50 (MDA-MB-231): > 100 µM (inactive) | GI50 (NCI/ADR-RES): > 100 µM (inactive) | GI50 (DU-145): > 100 µM (inactive) | GI50 (SNB-19): > 100 µM (inactive) | GI50 (RXF 393): > 100 µM (inactive) | GI50 (Malme-3M): > 100 µM (inactive) | GI50 (CAKI-1): > 100 µM (inactive) | GI50 (SF-539): > 100 µM (inactive) | GI50 (SK-MEL-2): > 100 µM (inactive) | GI50 (UACC-62): > 100 µM (inactive) | GI50 (RPMI-8226): > 100 µM (inactive) | GI50 (SK-OV-3): > 100 µM (inactive) | GI50 (UACC-257): > 100 µM (inactive) | GI50 (NCI-H460): > 100 µM (inactive) | GI50 (UO-31): > 100 µM (inactive) | GI50 (NCI-H522): > 100 µM (inactive) | GI50 (HCT-116): > 100 µM (inactive)
